Assay results published in patent US6964983B2, “Compounds that modulate PPAR activity and methods for their preparation” (Warner-Lambert Company, LLC, priority 2002, dated 2005).

Assays:
hPPARβ = molecular target: T1, hPPARβ (Homo sapiens, UniProt Q03181); assay: Transient transfection assay in HepG2 cells, Gal4-hPPARβ chimeric receptor, luciferase reporter; assay type: cell-based; settings: Hep G2-hBeta EC50, 24 hours incubation; read-out: EC50β nM (Group)
T1 sequence (Q03181 171-441 limits assumed): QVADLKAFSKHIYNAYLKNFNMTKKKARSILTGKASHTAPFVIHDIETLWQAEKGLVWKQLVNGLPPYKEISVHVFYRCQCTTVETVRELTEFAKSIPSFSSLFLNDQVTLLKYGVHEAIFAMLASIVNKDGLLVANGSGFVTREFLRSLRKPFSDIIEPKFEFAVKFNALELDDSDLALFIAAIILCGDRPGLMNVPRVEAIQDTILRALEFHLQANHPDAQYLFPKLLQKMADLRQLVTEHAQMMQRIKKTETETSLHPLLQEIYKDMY
Experimental: (§1) 1. Test A. Transient Transfections Assay using the HepG2 Hepatoma Cell Line.
(§2) HepG2 cells were transiently transfected with an expression plasmids encoding hPPARα, hPPARβ or mPPARγ chimeric receptors and a reporter containing the yeast upstream activating sequence (UAS) upstream of the viral E1B promoter controlling a luciferase reporter gene. In addition, the plasmid pRSVβ-gal was used to control for transfection efficiency. HepG2 cells were grown in DMEM supplemented with 10% FBS and 1 μM non-essential amino acid. On the first day, cells were split into 100 mm dishes at 2.5×10^6/dish and incubated overnight at 37° C./5% CO2. On the second day the cells were transiently transfected with plasmid DNA encoding a chimeric receptor, the luciferase reporter gene; and β-gal. For each 100 mm dish, 15 μg of lucifease reporter (PG5E1b) DNA, 15 μg of Gal4-PPAR chimeric receptor DNA, and 1.5 μg of β-gal plasmid DNA were mixed with 1.4 ml of opti-MEM in the tube. 28 μl of LipoFectamine-2000 reagent was added to 1.4 ml of opti-MEM in the tube, and incubate for 5 min at RT. The diluted Lipofectamine-2000 reagent was combined with the DNA mixture, and incubate for 20 min at RT. After fresh medium was added to each 100 mm dish of cells, 2.8 ml of Lipofectamine2000-DNA mixture was added dropwise to the 100 mm dish containing 14 ml of medium, and incubate 37° C. overnight. On day three cells were trypsinized off the 100 mm dishes and re-plated on 96 well plates. Cells were plated at 2.5×10^4 cells per well in 150 μl of media and 50 μl of compound diluted by media was added. The test compound added were in the range from 50 μM to 50 pM. After addition of compounds, the plates were incubated at 37° C. for 24 hours. Subsequently cells were washed with once with 100 μl of PBS, lysed, and processed for measuring luciferase and β-gal activity using Dual-Light luciferase kit from Tropix ®, according to the manufacturer's recommendations, on an EG&G Bethold MicroLumat LB96P luminometer. EC50 values were obtained using the GraphPad Prism™ program.

hPPARα = molecular target: T2, hPPARα (Homo sapiens, UniProt Q07869); assay: Transient transfection assay in HepG2 cells, Gal4-hPPARα chimeric receptor, luciferase reporter; assay type: cell-based; settings: Hep G2-hAlpha EC50, 24 hours incubation; read-out: EC50α nM (Group)
T2 sequence (Q07869 200-468 limits assumed): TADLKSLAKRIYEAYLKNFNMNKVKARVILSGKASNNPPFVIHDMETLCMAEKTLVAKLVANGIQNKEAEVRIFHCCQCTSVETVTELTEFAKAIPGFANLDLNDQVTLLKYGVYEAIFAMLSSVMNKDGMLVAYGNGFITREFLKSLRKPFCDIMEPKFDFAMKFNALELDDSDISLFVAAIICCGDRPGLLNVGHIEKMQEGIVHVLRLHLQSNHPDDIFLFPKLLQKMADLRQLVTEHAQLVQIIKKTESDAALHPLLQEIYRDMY
Experimental: as §1, §2

EC50 (hPPARβ) [nM] | EC50 (hPPARα) [nM] | melting point [°C] | SMILES
< 300 | 500 to 1000 |  | CCCc1cc(SCc2ccc(-c3ccc(C(F)(F)F)cc3)cc2)ccc1OCC(=O)O [Example 52, [2-Propyl-4-(4′-trifluoromethyl-biphenyl-4-ylmethylsulfanyl)-phenoxy]-acetic acid]
1000 to 2000 | 1000 to 2000 |  | Cc1cc(SCc2ccc(-c3ccc(C(F)(F)F)cn3)cc2)ccc1OCC(=O)O [Example 30, {2-Methyl-4-[4-(5-trifluoromethyl-pyridin-2-yl)-benzylsulfanyl]-phenoxy}-acetic acid]
< 300 | 500 to 1000 |  | COc1cc(OCC(=O)O)c(C)cc1SCc1cc(-c2ccc(C(F)(F)F)cc2)on1 [Example 43, {5-Methoxy-2-methyl-4-[5-(4-trifluoromethyl-phenyl)-isoxazol-3-ylmethylsulfanyl]-phenoxy}-acetic acid]
500 to 1000 | > 5000 |  | O=C(O)COc1ccc(SCc2cc(-c3ccc(C(F)(F)F)cc3)on2)c2c1CCC2 [Example 44, {7-[5-(4-Trifluoromethyl-phenyl)-isoxazol-3-ylmethylsulfanyl]-indan-4-yloxy}-acetic acid]
 | 2000 to 5000 |  | Cc1cc(SCc2cc(-c3ccc(C(F)(F)F)cc3)on2)ccc1OCC(=O)O [Example 42, {2-Methyl-4-[5-(4-trifluoromethyl-phenyl)-isoxazol-3-ylmethylsulfanyl]-phenoxy}-acetic acid]
< 300 | 1000 to 2000 |  | O=C(O)COc1ccc(SCc2cccc(-c3ccc(C(F)(F)F)cn3)c2)c2c1CCC2 [Example 53, {7-[3-(5-Trifluoromethyl-pyridin-2-yl)-benzylsulfanyl]-indan-4-yloxy}-acetic acid]
< 300 | 300 to 500 |  | COc1cc(OCC(=O)O)c(C)cc1SCc1ccc(-c2ccc(F)cc2)cc1 [Example 10, [4-(4′-Fluoro-biphenyl-4-ylmethylsulfanyl)-5-methoxy-2-methyl-phenoxy]-acetic acid]
1000 to 2000 | 2000 to 5000 |  | Cc1cc(SCc2ccc3c(c2)Cc2ccccc2-3)ccc1OCC(=O)O [Example 17]
500 to 1000 |  | 155 to 157 | CCCCc1cc(SCc2ccc(-c3ccc(C(F)(F)F)cc3)cc2)ccc1OCC(=O)O [Example 100, 2-[2-butyl-4-({4-[4-(trifluoromethyl)phenyl]phenyl}methylthio)phenoxy]acetic acid]
< 300 | 2000 to 5000 |  | COc1cc(OCC(=O)O)c(C)cc1SCc1cc(-c2ccc(Cl)cc2)on1 [Example 41, {4-[5-(4-Chloro-phenyl)-isoxazol-3-ylmethylsulfanyl]-5-methoxy-2-methyl-phenoxy}-acetic acid]
< 300 | 300 to 500 |  | COc1cc(OCC(=O)O)c(C)cc1SCc1cccc(-c2ccc(C(F)(F)F)cc2)c1 [Example 49, [5-Methoxy-2-methyl-4-(4′-trifluoromethyl-biphenyl-3-ylmethylsulfanyl)-phenoxy]-acetic acid]
< 300 | < 300 |  | COc1cc(OCC(=O)O)c(C)cc1SCc1ccc(-c2ccc(Cl)cc2Cl)cc1 [Example 7, [4-(2′,4′-Dichloro-biphenyl-4-ylmethylsulfanyl)-5-methoxy-2-methyl-phenoxy]-acetic acid]
< 300 | 2000 to 5000 |  | O=C(O)COc1ccc(SCc2cccc(-c3ccc(C(F)(F)F)cc3)c2)c2c1CCC2 [Example 48, [7-(4′-Trifluoromethyl-biphenyl-3-ylmethylsulfanyl)-indan-4-yloxy]-acetic acid]
1000 to 2000 |  | 121 to 122 | O=C(O)COc1ccc(SCc2cccc(OCc3ccc(Cl)c(C(F)(F)F)c3)c2)c2c1CCC2 [Example 80, {7-[3-(4-Chloro-3-trifluoromethyl-benzyloxy)-benzylsulfanyl]-indan-4-yxoly}-acetic acid]
500 to 1000 |  | 170 to 172 | O=C(O)COc1ccc(SCc2ccc(-c3ccc(C(F)(F)F)cc3)cc2)c2c1CCCO2 [Example 93, [8-(4′-Trifluoromethyl-biphenyl-4-ylmethylsulfanyl)-chroman-5-yloxy]-acetic acid]
300 to 500 |  | 180 to 182 | Cc1cc(SCc2cc(-c3ccc(C(F)(F)F)cc3)on2)c(Cl)cc1OCC(=O)O [Example 99, {5-Chloro-2-methyl-4-[5-(4-trifluoromethyl-phenyl)-isoxazol-3-ylmethylsulfanyl]-phenoxy}-acetic acid]
1000 to 2000 |  | 183 to 185 | COc1ccc(COc2ccc(CSc3ccc(OCC(=O)O)c4c3CCC4)cc2)cc1 [Example 68, {7-[4-(4-Methoxy-benzyloxy)-benzylsulfanyl]-indan-4-yloxy}-acetic acid]
500 to 1000 |  | 158 to 160 | O=C(O)COc1ccc(SCc2ccc(OCc3cc(Cl)ccc3Cl)cc2)c2c1CCC2 [Example 71, {7-[4-(2,5-Dichloro-benzyloxy)-benzylsulfanyl]-indan-4-yloxy}-acetic acid]
2000 to 5000 |  | 188 to 190 | O=C(O)COc1ccc(CCc2ccc(-c3ccc(C(F)(F)F)cc3)cc2)c2c1CCC2 [Example 91, {7-[2-(4′-Trifluoromethyl-biphenyl-4-yl)-ethyl]-indan-4-yloxy}-acetic acid]
> 5000 |  | 150 | Cc1cc(SCc2ccc(OCc3ccccn3)cc2)ccc1OCC(=O)O [Example 60, {2-Methyl-4-[4-(pyridine-2-ylmethoxy)-benzylsulfanyl]-phenoxy}-acetic acid]
< 300 |  | 133 | Cc1cc(SCc2ccc(OCc3ccc(C(F)(F)F)cc3)cc2)ccc1OCC(=O)O [Example 15, {2-Methyl-4-[4-(4-trifluoromethyl-benzyloxy)-benzylsulfanyl]-phenoxy}-acetic acid]
500 to 1000 |  | 170 to 172 | O=C(O)COc1ccc(SCc2ccc(OCc3ccc(Cl)cc3)cc2)c2c1CCC2 [Example 70, {7-[4-(4-Chloro-benzyloxy)-benzylsulfanyl]-indan-4-yloxy}-acetic acid]
2000 to 5000 |  | 161 to 162 | O=C(O)COc1ccc(SCc2cc(-c3ccccc3Cl)on2)c2c1CCC2 [Example 87, {7-[5-(2-Chloro-phenyl)-isoxazol-3-ylmethylsulfanyl]-indan-4-yloxy}-acetic acid]
< 300 | < 300 |  | COc1cc(OCC(=O)O)ccc1SCc1ccc(-c2ccc(C(F)(F)F)cc2)cc1 [Example 21, [3-Methoxy-4-(4′-trifluoromethyl-biphenyl-4-ylmethylsulfanyl)-phenoxy]-acetic acid]
300 to 500 |  | 142 to 143 | Cc1cc(SCc2ccc(OCc3ccc(C(F)(F)F)cc3)cc2)c(Cl)cc1OCC(=O)O [Example 61, {5-Chloro-2-methyl-4-[4-(4-trifluoromethyl-benzyloxy)-benzylsulfanyl]-phenoxy}-acetic acid]
1000 to 2000 |  | 125 to 127 | O=C(O)COc1ccc(SCc2ccc(OCc3ccc(F)cc3C(F)(F)F)cc2)c2c1CCC2 [Example 76, {7-[4-(4-Fluoro-2-trifluoromethyl-benzyloxy)-benzylsulfanyl]-indan-4-yloxy}-acetic acid]
> 5000 |  | 151 to 152 | Cc1onc(-c2c(Cl)cccc2Cl)c1CSc1ccc(OCC(=O)O)c2c1CCC2 [Example 88, {7-[3-(2,6-Dichloro-phenyl)-5-methyl-isoxazol-4-ylmethylsulfanyl]-indan-4-yloxy}-acetic acid]
< 300 |  | 158 to 159 | O=C(O)COc1ccc(SCc2ccc(-c3ccc(C(F)(F)F)cc3)cc2)c2c1CCC2 [Example 12, [7-(4′-Trifluoromethyl-biphenyl-4-ylmethylsulfanyl)-indan-4-yloxy]-acetic acid]
